Here are results for one compound from patent publication US8314068B2, “P2X7 inhibition of epithelial cancers and papillomas” (University Hospitals of Cleveland, priority 2009, dated 2012).

Molecules are shown by their SMILES.

Test [1] deals with mouse wild-type keratinocytes. Briefly: Cytosolic calcium (Fluo-4) in mouse wild-type keratinocytes. In kind it is cell-based. The procedure:
FIG. 17A: Time course of changes in cytosolic calcium (ΔCa^2+i), in medium containing 1.2 mM Ca^2+ (upper trace) or 1.2 mM Ca2+ plus 1.2 mM EGTA (lower trace).
(§1) FIG. 17C: Dose response profile comparison between ΔCa^2+i and Eth-Br influx. Cells were treated with each BzATP concentration for […]. Levels of ΔCa^2+i (empty circles) were determined 2 min after adding BzATP; changes in Eth-Br fluorescence (filled circles) were determined 5 min after adding BzATP. Values=means±SD. Experiments were repeated 3 times. AU=arbitrary units.
(§2) Changes in Ca^2+i in cultured cells were determined in terms of changes in intracellular Fluo-4 fluorescence using dynamic confocal laser scanning microscopy. Cultured mouse keratinocytes were loaded with 5 μM Fluo-4/AM, and imaged with a Zeiss LSM 510 inverted real-time confocal microscope. Images were collected at 488 nm/505 nm (exc/emi) at intervals of 10 to 15 seconds after treatment with 100 μM BzATP, added to the perfusate. For ethidium bromide influx experiments, glass-bottomed dishes cultured with mouse keratinocytes were placed in the microscope. Images (collected at 488 nm/505 nm [exc/emi]) were taken before, and at intervals of 30 seconds after adding 5 μM ethidium bromide to the perfusate as described. Average fluorescence intensity was quantified from collated images using MetaVue software (Fryer Company Inc., Huntley, Ill.) by subtracting the basal intensity value.

Test [2] has as its system mouse wild-type normal keratinocytes. Kind of test: DNA synthesis ([3H]-thymidine incorporation) in mouse wild-type normal keratinocytes. It counts as cell-based. Particulars: BzATP 100 μM 8 hours; oligonucleotides 100 μM 14 hours. Here is the method: FIG. 20 presents exemplary data showing the effects of pre-treatment with anti-sense P2X7 oligonucleotides (ASO) or random-control P2X7 oligonucleotides (RCO) (both at 100 μM for 14 hours), and of treatments with BzATP (100 μM, 8 hours) on [^3H]-thymidine incorporation in mouse wild-type normal keratinocytes (values are means±SD, n=4).
Changes in DNA synthesis were determined in terms of [^3H]-thymidine incorporation as described Wang et al., “EGF facilitates epinephrine inhibition of P2X7-receptor mediated pore formation and apoptosis: a novel signaling network” Endocrinology 2005, 146:164-174. The radioactivity (dpm/mg Protein, determined by Bio-Rad Protein Assay solution [Hercules, Calif.]) of triplicated samples was determined by beta scintillation counting (Beckman LS1801 scintillation counter).
A general note: Incorporation of labelled thymidine or its analogues reports DNA synthesis.

The test system of test [3] is hEVEC cells. Kind of test: Apoptosis in hEVEC cells. It counts as cell-based, human.
The target of test [4] is T1, human full-length P2X7 receptor (N-Myc-hP2X7-MDCK cells) (Homo sapiens, UniProt Q99572).
T1 construct: MDCK cells heterologously expressing the human full-length P2X7 receptor tagged with N-Myc at the N-terminus; expressed in transfected cells; host or cells: MDCK (strain II) cells expressing tetracycline-regulated repressor
T1 sequence (Q99572 1-595): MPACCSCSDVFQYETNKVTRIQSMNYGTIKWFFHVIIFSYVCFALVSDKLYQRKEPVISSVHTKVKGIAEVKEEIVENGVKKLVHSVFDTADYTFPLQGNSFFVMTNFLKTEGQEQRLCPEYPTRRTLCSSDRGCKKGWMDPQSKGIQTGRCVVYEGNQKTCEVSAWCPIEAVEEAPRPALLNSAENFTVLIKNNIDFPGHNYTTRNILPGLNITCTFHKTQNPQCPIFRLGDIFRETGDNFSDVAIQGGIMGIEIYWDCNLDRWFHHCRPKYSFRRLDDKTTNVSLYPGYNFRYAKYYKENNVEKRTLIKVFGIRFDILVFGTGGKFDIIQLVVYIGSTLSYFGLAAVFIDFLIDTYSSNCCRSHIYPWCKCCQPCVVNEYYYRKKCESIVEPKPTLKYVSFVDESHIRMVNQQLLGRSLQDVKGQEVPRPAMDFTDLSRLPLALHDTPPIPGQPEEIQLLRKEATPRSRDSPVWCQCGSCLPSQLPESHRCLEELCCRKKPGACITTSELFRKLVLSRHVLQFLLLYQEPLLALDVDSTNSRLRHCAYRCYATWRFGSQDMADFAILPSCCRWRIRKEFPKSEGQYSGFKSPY
Briefly: Apoptosis and P2X7 expression in N-Myc-hP2X7-MDCK cells. It counts as cell-based. Particulars: BzATP 100 μM, 8 hrs.

Test [5] deals with P2X7−/−Pf and P2X7−/−GSK keratinocytes. Kind of test: Apoptosis in keratinocytes of P2X7-receptor-deficient mice. The note with it: 100 μM BzATP. It counts as cell-based, mouse. The procedure: FIG. 16C: BzATP time-response effect in cultured mouse normal keratinocytes (wild-type, C57B1; filled triangles), or in keratinocytes obtained from C57B1 background P2X7-deficient mice (P2X7^−/−Pfizer; empty circles; or P2X7^−/−GSK; filled circles). Values are means (±SD) of 3 experiments for each condition. Changes in apoptosis were determined using cell-death detection ELISA.
Apoptosis of cultured mouse keratinocytes was quantified in terms of percent solubilized DNA, or by using the commercial cell-death detection ELISA kit (Roche Applied Science, Nutley, N.J.). Wang et al., “P2X7-receptor mediated apoptosis of human cervical epithelial cells” Am J Physiol 2004, 287:C1349-C1358; and Feng et al., “A truncated P2X7 receptor variant (P2X7-j) endogenously expressed in cervical cancer cells antagonizes the full-length P2X7 receptor through hetero-oligomerization” J Biol Chem 2006, 281:17228-17237, respectively.
The experiments utilized primary cultures of epidermal keratinocytes generated from 6-8 weeks old wild-type C57B1 mice (Charles River, Wilmington, Mass.); from P2X7^−/−Pfizer mice constructed by deletion of amino acids 506-532 of the C-terminus (Solle et al., “Altered cytokine production in mice lacking P2X(7) receptors” J Biol Chem 2001, 276:125-32), or from P2X7^−/−GSK mice, which have a lacZ gene inserted at the beginning of exon 1, resulting knockout of the receptor. […]

Test [6] deals with HeLa cells. Briefly: Apoptosis in HeLa cells. It counts as cell-based, human.
Test [7] concerns P2X7 pores. Kind of test: Ethidium bromide influx (P2X7 pore formation) in mouse wild-type keratinocytes. It counts as cell-based. The procedure:
FIG. 17B: Time course of influx of ethidium bromide (Eth-Br).
as §1, §2

Take `Nc1ncnc2c1ncn2[C@@H]1O[C@H](COP(=O)(O)OP(=O)(O)OP(=O)(O)O)[C@@H](OC(=O)c2ccc(C(=O)c3ccccc3)cc2)[C@H]1O` [BzATP, 3′-O-(4-benzoylbenzoyl)adenosine triphosphate]: in test [1], the “concentration of pre-maximal response, cytosolic calcium” value fell in the range of 100 to 250 µM and the “threshold concentration, cytosolic calcium” value lay in the range of 50 to 100 nM. Further, in test [1] (100 μM BzATP, 1.2 mM Ca^2+), the “change in cytosolic calcium” value is on record as “acute increase in cytosolic calcium” and the “duration of increase in cytosolic calcium” value is “at least 6 minutes”. For the same compound, in test [2], the “effect on [3H]-thymidine incorporation” value is “no significant effect”. Besides, the “increase of apoptosis by BzATP” value in test [3] is 2.5 fold. In test [4], this compound came in with an augmentation of apoptosis of 2.5 fold. Also, the induction of apoptosis result in test [5] was “failed to induce apoptosis”. In addition, the “effect of BzATP on apoptosis” value in test [6] is reported as “no significant effect”. For the same compound, in test [7], the “concentration of pre-maximal response, ethidium bromide influx” value lay in the range of 100 to 250 µM; the “onset of pore formation and augmented calcium influx after adding BzATP” value was in the range of 30 to 60 s; the “threshold concentration, ethidium bromide influx” value fell in the range of 50 to 100 nM. Moreover, in test [7] (100 μM BzATP), the “influx of ethidium bromide” value is recorded as “acute increase in the influx of ethidium bromide”.
